Measurements taken from patent US20260364080A1, “PYRAZOLO-PYRIMIDINONE COMPOUNDS FOR USE IN METHODS OF INHIBITING WEE1 A KINASE” (Acrivon Therapeutics, Inc., priority 2023, published 2026).
Read-outs that look alike come from different tables or passages of the source.

Legend:
[1] = biological target: T1, Wee1A kinase (CDK1 Tyr15 phosphorylation in ACHN renal cell carcinoma cells) (Homo sapiens, UniProt P30291); assay: High-content imaging of pCdk1 Y15, Wee1A kinase target engagement in ACHN cells; type: cell-based
T1 construct: pCDK1 Tyr15 immunofluorescence read-out
How it was run: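 EC50 values come from the per-well fraction of cells with nuclear pCdk1 Y15 staining, normalised to DMSO control, by automated immunofluorescence imaging. Cells were ACHN renal carcinoma, treated 4 h with compound at 7–5,000 nM or 0.3–200 nM.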

[2] = biological target: T2, Myt1 kinase (CDK1 Thr14 phosphorylation in DAOY medulloblastoma cells) (Homo sapiens, UniProt Q99640); assay: AlphaLISA assay, Myt1 kinase target engagement (phospho-CDK1 Thr14) in DAOY cells; type: cell-based
T2 construct: pCDK1 Thr14 AlphaLISA read-out
T2 sequence (Q99640 1-499): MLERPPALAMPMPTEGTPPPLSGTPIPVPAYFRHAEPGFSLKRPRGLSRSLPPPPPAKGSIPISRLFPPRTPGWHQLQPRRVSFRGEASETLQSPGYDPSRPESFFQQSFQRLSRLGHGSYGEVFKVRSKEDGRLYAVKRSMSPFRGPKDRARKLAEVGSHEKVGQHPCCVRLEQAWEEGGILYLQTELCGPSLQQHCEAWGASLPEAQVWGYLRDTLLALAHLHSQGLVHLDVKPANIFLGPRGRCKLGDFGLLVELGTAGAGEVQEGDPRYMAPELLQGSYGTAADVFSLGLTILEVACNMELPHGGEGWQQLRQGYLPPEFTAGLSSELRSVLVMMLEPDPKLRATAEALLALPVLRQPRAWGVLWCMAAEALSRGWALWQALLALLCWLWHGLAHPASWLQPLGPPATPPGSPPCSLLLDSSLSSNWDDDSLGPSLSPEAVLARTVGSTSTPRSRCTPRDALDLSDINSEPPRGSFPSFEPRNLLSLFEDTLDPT
Description: Each of an ACHN renal cell carcinoma cell line (ATCC) and a DAOY medulloblastoma cell line, and an A427 lung cancer line were cultured in Minimum Essential Medium Eagle supplemented with 10% fetal calf serum (Sigma), 1% Penicillin-Streptomycin and 10 mM HEPES buffer (HyClone). Cell cultures were kept in a humidified incubator at 37 °C and 5% CO2. Cells were routinely tested for Mycoplasma contamination.
For target engagement assessment of Myt1 kinase inhibition, quantification of Cdk1 phosphorylated on threonine 14 was detected using the AlphaLISA® SureFire® Ultra™ Human Phospho-CDK1 (Thr14) assay (Perkin Elmer). DAOY or ACHN cells were seeded into tissue culture treated 96-well plates (VWR) to a density of 10,000 or 20,000 cells per well respectively. 24 h post seeding cells were treated for 4 h with compounds at concentrations ranging from 7 to 5000 nM. Cells were washed with PBS and lysed in 50 μl AlphaLISA lysis buffer before freezing at −80 C. Ten ul of the lysate was transferred to 384 well plates and incubated with AlphaLISA donor and acceptor beads according to the manufacturer's instructions. Dose response curves and EC50 values were calculated and visualized using GraphPad Prism version 9. Target engagement for Myt1 kinase can also be measured using the same AlphaLISA assay in OVCAR3 cells, an ovarian cancer cell line. NIH:OVCAR-3 (OVCAR3) cells are cultured in RPMI-1640 medium supplemented with 0.01 mg/ml insulin, 20% FBS, 1% Penicillin-Streptomycin and 10 mM HEPES buffer. 14,000 cells per well are seeded into 96 well tissue culture plates in full medium. Twenty-four hours post seeding, cells are treated with compound for 4 hours at concentrations ranging from 0.017 nM to 1000 nM.

[3] = biological target: T3, Myt1 kinase (recombinant PMYT-1) (Homo sapiens, UniProt Q99640); assay: Myt1 kinase binding assay (LanthaScreen Eu Kinase Binding Assay)
T3 construct: full length PMYT-1 was expressed by baculovirus in insect cells; purchased Invitrogen A30984; host or cells: insect cells (baculovirus)
T3 sequence (Q99640 1-499): T2 sequence (Q99640 1-499)
How it was run: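 Compound binding to Myt1 kinase was assessed using the LanthaScreen Eu Kinase Binding Assay. This europium-based binding format was applied to quantify how strongly each compound bound to the Myt1 enzyme, and the binding affinity was reported for each compound as an IC50 value.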

[4] = biological target: T4, recombinant human Wee1A kinase (Homo sapiens, UniProt P30291); assay: Wee1A kinase binding assay (LanthaScreen Eu time-resolved FRET)
T4 construct: full length Wee1 kinase was expressed by baculovirus in insect cells; purchased Invitrogen PV3817; host or cells: insect cells (baculovirus)
How it was run: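 Full-length, baculovirus-expressed GST-tagged Wee1A (5 nM) was mixed with 2 nM Eu-anti-GST antibody, 30 nM kinase tracer 178 and compound (1% DMSO). Buffer was 50 mM HEPES pH 7.5, 10 mM MgCl2, 1 mM EGTA, 0.01% Brij-35, incubated 60 min at room temperature. TR-FRET 665/615 nm emission ratios from duplicates were curve-fitted.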

ACHN cells = assay: Cell Titer Glo viability assay, ACHN cells; type: cell-based; settings: Homo sapiens, 144 h, absolute EC50
How it was run: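 Cells grown in MEM with 10% FCS were seeded at 500 (A427), 400 (ACHN) or 250 (DAOY) per well and treated the next day with compound at 17 to 10 000 nM. Viability relative to untreated control was read at 144 h by CellTiter-Glo 2.0.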

[5] = 4 h treatment, nuclear positivity for pCdk1 Y15 vs DMSO control, read-out: CDK1 Tyr15 Phosphorylation EC50
[6] = 4 h treatment, read-out: CDK1 Thr14 Phosphorylation EC50
[7] = 3 nM tracer 178, 2.5 nM PMYT-1, 1 nM Eu-labeled antibody, read-out: Myt1 kinase Binding IC50
[8] = 30 nM tracer 178, 5 nM Wee1A kinase, 2 nM Eu-labeled antibody, 60 minutes at room temperature, read-out: Wee1A kinase Binding IC50

T4 sequence (P30291 whole entry): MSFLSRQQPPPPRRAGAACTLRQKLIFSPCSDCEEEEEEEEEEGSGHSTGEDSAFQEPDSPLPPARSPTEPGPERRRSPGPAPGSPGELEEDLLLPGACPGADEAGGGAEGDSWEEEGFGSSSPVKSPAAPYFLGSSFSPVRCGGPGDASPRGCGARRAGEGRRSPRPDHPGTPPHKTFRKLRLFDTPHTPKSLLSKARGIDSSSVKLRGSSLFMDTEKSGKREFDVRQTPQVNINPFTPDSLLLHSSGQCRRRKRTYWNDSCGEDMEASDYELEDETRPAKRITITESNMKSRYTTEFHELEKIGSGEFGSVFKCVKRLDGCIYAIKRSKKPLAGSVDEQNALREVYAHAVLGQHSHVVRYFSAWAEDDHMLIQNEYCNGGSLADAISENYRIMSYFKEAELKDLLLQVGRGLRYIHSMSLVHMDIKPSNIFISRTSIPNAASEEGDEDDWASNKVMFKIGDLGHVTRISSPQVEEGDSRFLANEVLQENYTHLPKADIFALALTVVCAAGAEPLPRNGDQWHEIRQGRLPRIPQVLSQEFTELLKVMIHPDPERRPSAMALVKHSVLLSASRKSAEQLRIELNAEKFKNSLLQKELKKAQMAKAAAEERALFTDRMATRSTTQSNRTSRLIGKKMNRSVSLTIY
T1 sequence (P30291 whole entry): as above

| Structure (SMILES) | EC50 [1, 5] [nM] | EC50 [2, 6] [nM] | IC50 [3, 7] [nM] | IC50 [4, 8] [nM] | EC50 (ACHN cells) [nM] | EC50 ([1]; read-out: CDK1 Tyr15 Phosphorylation EC50, 4 h treatment, nuclear positivity for pCdk1 Y15 vs DMSO control) [nM] | EC50 ([2]; read-out: CDK1 Thr14 Phosphorylation EC50, 4 h treatment) [nM] | IC50 ([3]; Myt1 kinase Binding IC50, 3 nM tracer 178, 2.5 nM PMYT-1, 1 nM Eu-labeled antibody) [nM] | IC50 [4] [nM] |
| --- | --- | --- | --- | --- | --- | --- | --- | --- | --- |
| C=CCn1c(=O)c2cnc(Nc3ccc4c(cnn4C)c3)nc2n1-c1cccc(O[C@H]2CCCNC2)n1 [Compound 104, 1-{6-[(S)-3-piperidyloxy]-2-pyridyl}-2-allyl-6-(1-methyl-1H-indazol-5-ylamino)-1,2-dihydro-3H-1,2,5,7-tetraazainden-3-one] | < 100 | 200 to 500 | < 20 | < 10 | ≤ 100 | – | – | – | – |
| C=CCn1c(=O)c2cnc(Nc3ccc(C#N)c(C)c3)nc2n1-c1cccc(OC2CCN(C)CC2)n1 [Compound 204, 2-methyl-4-[(1-{6-[(1-methylpiperidin-4-yl)oxy]pyridin-2-yl}-3-oxo-2-(prop-2-en-1-yl)-1H,2H,3H-pyrazolo[3,4-d]pyrimidin-6-yl)amino]benzonitrile] | < 100 | > 1000 | 20 to 100 | < 10 | ≤ 100 | – | – | – | – |
| C=CCn1c(=O)c2cnc(Nc3ccc(OCC)cc3)nc2n1-c1cccc(OC2CCNCC2)n1 [Compound 254, 2-allyl-6-((4-ethoxyphenyl)amino)-1-(6-(piperidin-4-yloxy)pyridin-2-yl)-1,2-dihydro-3H-pyrazolo[3,4-d]pyrimidin-3-one] | < 100 | 500 to 1000 | 20 to 100 | < 10 | ≤ 100 | – | – | – | – |
| C=CCn1c(=O)c2cnc(Nc3cnn(C(C)C)c3)nc2n1-c1cccc(OC2CCN(C)CC2)n1 [Compound 198, 2-allyl-6-(1-isopropyl-4-pyrazolylamino)-1-[6-(1-methyl-4-piperidyloxy)-2-pyridyl]-1,2-dihydro-3H-1,2,5,7-tetraazainden-3-one] | < 100 | > 1000 | 100 to 500 | < 10 | ≤ 100 | – | – | – | – |
| C=CCn1c(=O)c2cnc(Nc3ccc(N4CCOCC4)c(C)c3)nc2n1-c1cccc(OC2CCN(C)CC2)n1 [Compound 270, 2-allyl-1-[6-(1-methyl-4-piperidyloxy)-2-pyridyl]-6-(4-morpholino-3-toluidino)-1,2-dihydro-3H-1,2,5,7-tetraazainden-3-one] | < 100 | < 200 | < 20 | < 10 | ≤ 100 | – | – | – | – |
| C=CCn1c(=O)c2cnc(Nc3ccc(OCC4CC4)cc3)nc2n1-c1cccc(OC2CCNCC2)n1 [Compound 259, 2-allyl-6-((4-(cyclopropylmethoxy)phenyl)amino)-1-(6-(piperidin-4-yloxy)pyridin-2-yl)-1,2-dihydro-3H-pyrazolo[3,4-d]pyrimidin-3-one] | < 100 | 200 to 500 | < 20 | < 10 | ≤ 100 | – | – | – | – |
| C=CCn1c(=O)c2cnc(Nc3cnn(C)c3)nc2n1-c1cccc(O[C@H]2C[C@H]3CC[C@@H](C2)N3C)n1 [Compound 190, 6-[(1-methyl-1H-pyrazol-4-yl)amino]-1-(6-{[(trans)-8-methyl-8-azabicyclo[3.2.1]octan-3-yl]oxy}pyridin-2-yl)-2-(prop-2-en-1-yl)-1H,2H,3H-pyrazolo[3,4-d]pyrimidin-3-one] | – | – | – | – | 100 to 500 | 100 to 500 | 500 to 1000 | < 20 | < 10 |
| C=CCn1c(=O)c2cnc(Nc3ccc(Cl)cc3)nc2n1-c1cccc(O[C@H]2CCNC2)n1 [Compound 145, 1-{6-[(S)-3-pyrrolidinyloxy]-2-pyridyl}-2-allyl-6-(p-chlorophenylamino)-1,2-dihydro-3H-1,2,5,7-tetraazainden-3-one] | 100 to 500 | 200 to 500 | 20 to 100 | < 10 | 100 to 500 | – | – | – | – |
| C=CCn1c(=O)c2cnc(Nc3ccc4nc(C)sc4c3)nc2n1-c1cccc(OC2CCN(C)CC2)n1 [Compound 260, 2-allyl-6-(2-methyl-1,3-benzothiazol-6-ylamino)-1-[6-(1-methyl-4-piperidyloxy)-2-pyridyl]-1,2-dihydro-3H-1,2,5,7-tetraazainden-3-one] | < 100 | 200 to 500 | < 20 | < 10 | ≤ 100 | – | – | – | – |
| C=CCn1c(=O)c2cnc(Nc3ccc(Cl)cc3)nc2n1-c1cccc(NC2CCN(C)CC2)n1 [Compound 138, 2-allyl-6-((4-chlorophenyl)amino)-1-(6-((1-methylpiperidin-4-yl)amino)pyridin-2-yl)-1,2-dihydro-3H-pyrazolo[3,4-d]pyrimidin-3-one] | < 100 | > 1000 | 100 to 500 | < 10 | ≤ 100 | – | – | – | – |
| C=CCn1c(=O)c2cnc(Nc3ccc4c(cnn4C)c3)nc2n1-c1cccc(O[C@H]2CCN(C)C2)n1 [Compound 105, 1-{6-[(S)-1-methyl-3-pyrrolidinyloxy]-2-pyridyl}-2-allyl-6-(1-methyl-1H-indazol-5-ylamino)-1,2-dihydro-3H-1,2,5,7-tetraazainden-3-one] | < 100 | 500 to 1000 | 20 to 100 | < 10 | ≤ 100 | – | – | – | – |
| C=CCn1c(=O)c2cnc(Nc3cnn(CC(C)C)c3)nc2n1-c1cccc(OC2CCN(C)CC2)n1 [Compound 200, 2-allyl-6-(1-isobutyl-4-pyrazolylamino)-1-[6-(1-methyl-4-piperidyloxy)-2-pyridyl]-1,2-dihydro-3H-1,2,5,7-tetraazainden-3-one] | < 100 | > 1000 | 100 to 500 | < 10 | ≤ 100 | – | – | – | – |
| C=CCn1c(=O)c2cnc(Nc3ccc(OCC(C)C)cc3)nc2n1-c1cccc(OC2CCN(C)CC2)n1 [Compound 257, 2-allyl-6-((4-isobutoxyphenyl)amino)-1-(6-((1-methylpiperidin-4-yl)oxy)pyridin-2-yl)-1,2-dihydro-3H-pyrazolo[3,4-d]pyrimidin-3-one] | < 100 | 500 to 1000 | < 20 | < 10 | ≤ 100 | – | – | – | – |
| C=CCn1c(=O)c2cnc(Nc3ccc4ncccc4c3)nc2n1-c1cccc(OC2CCNCC2)n1 [Compound 242, 2-allyl-1-[6-(4-piperidyloxy)-2-pyridyl]-6-(6-quinolylamino)-1,2-dihydro-3H-1,2,5,7-tetraazainden-3-one] | 100 to 500 | 500 to 1000 | < 20 | < 10 | 100 to 500 | – | – | – | – |
